Common to all, as to experiment: NCI-60 cell line screen, 48 h
Test [1] relates to A549.
For test [2], the system named is PC-3.
Test [3] deals with CAKI-1.
The test system of test [4] is OVCAR-4.
Test [5] has as its system DU-145.
The subject of test [6] is SF-268.
Test [7] concerns SNB-75.
For test [8], the system named is HOP-62.
The test system of test [9] is UACC-257.
For test [10], the system named is OVCAR-3.
Test [11] relates to TK-10.
Test [12] deals with NCI-H226.
Test [13] deals with LOX IMVI.
The test system of test [14] is BT-549.
Test [15] has as its system HL-60.
The subject of test [16] is 786-0.
In test [17] the test system is NCI/ADR-RES.
In test [18] the test system is SK-MEL-2.
The test system of test [19] is M14.
Test [20] has as its system SNB-19.

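Growth conditions: 96-well plates. Treatment: test compound, 48 hours, 5 concentrations. Analysis: linear interpolation between bracketing concentrations; unreached endpoints set to highest concentration. GI50 = concentration required for 50% inhibition of growth.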 Calls of active or inactive are those of the source. Rule as the data show it: active = GI50 up to about 1.1 µM and inactive = higher.

`O=c1[nH]nc(Cc2ccccc2)n1Nc1ccccc1`: the GI50 in test [1] is > 100 µM (inactive); in test [2], > 100 µM (inactive); in [3], 46.3 µM (inactive); in test [4], > 100 µM (inactive); in test [5] it was > 100 µM (inactive); in test [6], 52 µM (inactive). Besides, the GI50 in test [7] is 17.2 µM (inactive); in test [8], > 100 µM (inactive); in [9], > 100 µM (inactive); in [10], > 100 µM (inactive); in test [11] it was > 100 µM (inactive); in test [12], > 100 µM (inactive). Besides, the GI50 was > 100 µM (inactive) in test [13]; > 100 µM (inactive) in [14]; > 100 µM (inactive) in [15]; > 100 µM (inactive) in test [16]; > 100 µM (inactive) in test [17]; 48.4 µM (inactive) in [18].
Turning to `CO/N=C1\CCC2(O)C3Cc4ccc(O)c5c4C2(CCN3CC2CC2)[C@H]1O5` (some centres not stated), the GI50 in test [1], in [2], in [3], in [4], in test [5] and in test [6] was > 100 µM (inactive) throughout. The GI50 in test [8], in test [19], in [10], in [20], in [11] and in test [12] was > 100 µM (inactive) each time. In addition, the GI50 in test [13], in test [14], in [15], in test [16], in test [17] and in test [18] was > 100 µM (inactive) in each case.
On to `Clc1ccc(Cl)c(NNc2cc(Cl)ccc2Cl)c1`, for which the GI50 in test [1] was 6.67 µM (inactive); in test [2], 3.66 µM (inactive); in test [3], > 10 µM (inactive); in [4] it was 4.95 µM (inactive); in test [5], 5.37 µM (inactive); in test [6], 4.69 µM (inactive). Further, the GI50 is > 10 µM (inactive) in test [8]; > 10 µM (inactive) in test [19]; > 10 µM (inactive) in test [9]; 3.08 µM (inactive) in [10]; 9.79 µM (inactive) in test [20]; 4.76 µM (inactive) in test [11]. Moreover, the GI50 in test [12] is > 10 µM (inactive); in [13], 3.57 µM (inactive); in test [14], 5.19 µM (inactive); in test [15] it was > 10 µM (inactive); in [16] it was > 10 µM (inactive); in [17] it was 2.92 µM (inactive). For the same compound, in [18], the GI50 was 2.83 µM (inactive).
Turning to `O=C1c2cc([N+](=O)[O-])cnc2S(=O)(=O)N1c1ccc(Oc2ccccc2)cc1`, the GI50 in test [1], in [2], in [4], in test [5], in test [7] and in test [8] was > 100 µM (inactive) throughout. In addition, the GI50 in [19], in test [10], in test [20], in test [11], in [12] and in test [13] was > 100 µM (inactive) in each case. In addition, the GI50 in test [14], in test [15], in test [16], in test [17] and in test [18] was > 100 µM (inactive) in each case.
With `COC(=O)C1=C(C)NC(CF)=C(C(=O)OC)C1c1cccc2c(=O)c3ccccc3oc12` (configuration not stated), the GI50 was 9.46 µM (inactive) in [1]; 2.69 µM (inactive) in [2]; 11.9 µM (inactive) in test [3]; 10.2 µM (inactive) in [4]; 90.4 µM (inactive) in test [5]; 18.3 µM (inactive) in test [6]. In addition, the GI50 in test [7] was 8.41 µM (inactive); in [8], 11.7 µM (inactive); in test [9], 16.5 µM (inactive); in test [10], 4.85 µM (inactive); in test [11], 35.8 µM (inactive); in [12], > 100 µM (inactive). Further, the GI50 in [13] was 7.4 µM (inactive); in test [14], 15.8 µM (inactive); in test [15], 4.65 µM (inactive); in test [16] it was 7.38 µM (inactive); in [17] it was 2.79 µM (inactive); in test [18], 20.4 µM (inactive).
For the compound `S=C1CC(c2ccccc2)Sc2ccccc2N1` (configuration not stated), the GI50 is > 10 µM (inactive) in [1]; 6.85 µM (inactive) in [2]; 55 µM (inactive) in test [3]; 49.2 µM (inactive) in test [4]; 87.1 µM (inactive) in test [5]; 38.8 µM (inactive) in test [6]. The GI50 is 20.9 µM (inactive) in test [7]; 22.8 µM (inactive) in test [8]; 45 µM (inactive) in test [19]; > 100 µM (inactive) in test [9]; 45.5 µM (inactive) in [10]; 35.6 µM (inactive) in [20]. The GI50 in test [11] was 49.3 µM (inactive); in test [12] it was > 100 µM (inactive); in [13], > 100 µM (inactive); in test [14] it was 53 µM (inactive); in test [15], > 100 µM (inactive); in test [16], > 10 µM (inactive). In test [17], the GI50 was 68.9 µM (inactive).
For the compound `COc1cc(C2SCC(=O)N2c2ccc(NC(C)=O)cc2)cc(OC)c1OC` (configuration not stated), the GI50 in test [1] was > 100 µM (inactive); in test [2] it was > 100 µM (inactive); in [3], 65.2 µM (inactive); in test [4], > 100 µM (inactive); in [5], > 100 µM (inactive); in test [6] it was > 100 µM (inactive). Also, the GI50 in [19], in test [9], in test [10], in test [20], in test [11] and in test [12] was > 100 µM (inactive) in each case. The GI50 is > 100 µM (inactive) in test [13]; 36.6 µM (inactive) in test [14]; > 100 µM (inactive) in [15]; > 100 µM (inactive) in [16]; 88.3 µM (inactive) in test [17]; > 100 µM (inactive) in test [18].
Consider `O=[N+]([O-])C(=C(N1CCCCC1)N1CCCCC1)/C(Cl)=C(\Cl)Br`, for which the GI50 in [1] was 32.7 µM (inactive); in test [2], 22.9 µM (inactive); in [3] it was 13.3 µM (inactive); in test [4], 24 µM (inactive); in test [5] it was 30.8 µM (inactive); in [6], 29.6 µM (inactive). In addition, the GI50 in test [7] was 16.6 µM (inactive); in test [8], 44.7 µM (inactive); in test [19], 20.6 µM (inactive); in test [9], 23.8 µM (inactive); in [10] it was 29.3 µM (inactive); in test [20], 26.4 µM (inactive). For the same compound, the GI50 in test [11] is 25.5 µM (inactive); in test [12], 20.8 µM (inactive); in test [13] it was 16.1 µM (inactive); in [14] it was 33.8 µM (inactive); in test [15], 15.2 µM (inactive); in test [16] it was 23.9 µM (inactive). Moreover, in [17], the GI50 is 27.2 µM (inactive).
In the case of `CC(=O)NC1C(OCc2ccccc2)OC(CO)C(O)C1OC(C)C(=O)NC(C(=O)NC(CCC(=O)Nc1ccc2c(c1)CN1C(=O)c3ccccc3C1=N2)C(N)=O)C(C)C` (configuration not stated), the GI50 in test [1], in test [2], in test [3], in [4], in test [5] and in test [6] was > 100 µM (inactive) throughout. Also, the GI50 in test [7], in test [8], in test [19], in test [9], in test [10] and in [20] was > 100 µM (inactive) throughout. The GI50 in [11], in test [13], in test [14], in test [15], in [16] and in test [17] was > 100 µM (inactive) throughout. In test [18], the GI50 is > 100 µM (inactive).
On to `CN(C)CCOc1ccc2[nH]c(C(=O)N3CC(CCl)c4c3cc([N+](=O)[O-])c3ccccc43)cc2c1` (configuration not stated), for which the GI50 in test [2] was 2.78 µM (inactive); in test [3], 2.79 µM (inactive); in test [5], 2.55 µM (inactive); in test [6], 1.71 µM (inactive); in test [7], 1.85 µM (inactive); in [8] it was 1.88 µM (inactive). In addition, the GI50 in test [19] was 2.07 µM (inactive); in test [9] it was 2.01 µM (inactive); in test [10], 1.87 µM (inactive); in test [20], 2.36 µM (inactive); in test [11], 1.94 µM (inactive); in test [12], 54.1 µM (inactive). Moreover, the GI50 in [13] is 2.58 µM (inactive); in test [14], 2.3 µM (inactive); in test [15], 3.2 µM (inactive); in test [16], 2.1 µM (inactive); in [17], 1.65 µM (inactive); in test [18], 2.15 µM (inactive).
With `C/C1=C\[C@H](C)C[C@H](C)OC(=O)C[C@H](c2ccc(O)cc2)NC(=O)[C@@H](Cc2c(Br)[nH]c3ccccc23)N(C)C(=O)[C@H](C)NC(=O)[C@@H](C)C1` [JASPAMIDE], the GI50 in test [1] was 0.172 µM (active); in [2] it was 0.0667 µM (active); in [3] it was 0.092 µM (active); in [4], 0.173 µM (active); in test [5] it was 0.0594 µM (active); in test [6] it was 0.139 µM (active). The GI50 was 0.084 µM (active) in test [7]; 0.329 µM (active) in test [8]; 0.211 µM (active) in [19]; 0.11 µM (active) in test [9]; 0.139 µM (active) in [10]; 0.213 µM (active) in test [20]. For the same compound, the GI50 was 0.294 µM (active) in test [11]; 0.245 µM (active) in test [12]; 0.122 µM (active) in test [13]; 0.0292 µM (active) in test [14]; 0.132 µM (active) in test [15]; 0.128 µM (active) in test [16]. In addition, in [17], the GI50 is 0.367 µM (active).
